From patent US20240124427A1, “HYDROXYHETEROCYCLOALKANE-CARBAMOYL DERIVATIVES” (Idorsia Pharmaceuticals Ltd, priority 2021, published 2024)

The compounds below were run against human Gal-3 (hGal-3) (Homo sapiens (Human), UniProt P17931) (assay: Competitive binding assay: biotinylated hGal-3 binding to microplate-adsorbed asialofetuin (ASF)). Conditions: Activity on hGal-3; mean values of several measurements; mixture of diastereomers measured where not separated.
Summary of the method: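 Biotinylated human Gal-3 binding to plate-adsorbed asialofetuin, competed by compound, 3 h at 4 °C. Bound protein detected with streptavidin-peroxidase (1 h, 4 °C) and ABTS substrate. IC50 reported as mean of several measurements.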

human Gal-3 (hGal-3), sequence (P17931 whole entry): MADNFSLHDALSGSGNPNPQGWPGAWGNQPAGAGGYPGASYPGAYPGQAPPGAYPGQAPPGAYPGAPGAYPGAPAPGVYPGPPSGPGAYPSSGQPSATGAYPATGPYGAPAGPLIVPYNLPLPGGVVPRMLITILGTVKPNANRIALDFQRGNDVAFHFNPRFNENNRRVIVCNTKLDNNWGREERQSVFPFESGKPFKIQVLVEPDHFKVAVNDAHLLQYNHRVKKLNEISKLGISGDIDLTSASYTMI

| IC50 | SMILES |
| --- | --- |
| 80 nM | CO[C@@H]1[C@@H](n2cc(-c3cc(F)c(F)c(F)c3)nn2)[C@@H](O)[C@@H](CO)O[C@H]1C(=O)N(c1cc(Cl)cc(Cl)c1)[C@@H]1CN(C(C)=O)C[C@H]1O [Example 77, (2R,3R,4S,5R,6R)-N-((3R,4R)-1-acetyl-4-hydroxypyrrolidin-3-yl)-N-(3,5-dichlorophenyl)-5-hydroxy-6-(hydroxymethyl)-3-methoxy-4-(4-(3,4,5-trifluorophenyl)-1H-1,2,3-triazol-1-yl)tetrahydro-2H-pyran-2-carboxamide] |
| 71 nM | CO[C@@H]1[C@@H](n2cc(-c3cc(F)c(F)c(F)c3)nn2)[C@@H](O)[C@@H](CO)O[C@H]1C(=O)N(c1cc(Br)cc(C#N)c1)[C@@H]1CN(C(C)=O)C[C@H]1O [Example 78, (2R,3R,4S,5R,6R)-N-((3R,4R)-1-acetyl-4-hydroxypyrrolidin-3-yl)-N-(3-bromo-5-cyanophenyl)-5-hydroxy-6-(hydroxymethyl)-3-methoxy-4-(4-(3,4,5-trifluorophenyl)-1H-1,2,3-triazol-1-yl)tetrahydro-2H-pyran-2-carboxamide] |
| 76 nM | CO[C@@H]1[C@@H](n2cc(-c3cc(F)c(F)c(F)c3)nn2)[C@@H](O)[C@@H](CO)O[C@H]1C(=O)N(c1cc(C)cc(Br)c1)[C@@H]1CN(C(C)=O)C[C@H]1O [Example 79, (2R,3R,4S,5R,6R)-N-((3R,4R)-1-acetyl-4-hydroxypyrrolidin-3-yl)-N-(3-bromo-5-methylphenyl)-5-hydroxy-6-(hydroxymethyl)-3-methoxy-4-(4-(3,4,5-trifluorophenyl)-1H-1,2,3-triazol-1-yl)tetrahydro-2H-pyran-2-carboxamide] |
| 31 nM | CO[C@@H]1[C@@H](n2cc(-c3ccc(Br)c(F)c3F)nn2)[C@@H](O)[C@@H](CO)O[C@H]1C(=O)N(c1cc(Cl)cc(Cl)c1)[C@@H]1CN(C(C)=O)C[C@H]1O [Example 80, (2R,3R,4S,5R,6R)-N-((3R,4R)-1-acetyl-4-hydroxypyrrolidin-3-yl)-4-(4-(4-bromo-2,3-difluorophenyl)-1H-1,2,3-triazol-1-yl)-N-(3,5-dichlorophenyl)-5-hydroxy-6-(hydroxymethyl)-3-methoxytetrahydro-2H-pyran-2-carboxamide] |
| 40 nM | CO[C@@H]1[C@@H](n2cc(-c3cc(F)c(C)c(F)c3)nn2)[C@@H](O)[C@@H](CO)O[C@H]1C(=O)N(c1cc(Br)cc(Br)c1)[C@@H]1CN(C(C)=O)C[C@H]1O [Example 81, (2R,3R,4S,5R,6R)-N-((3R,4R)-1-acetyl-4-hydroxypyrrolidin-3-yl)-N-(3,5-dibromophenyl)-4-(4-(3,5-difluoro-4-methylphenyl)-1H-1,2,3-triazol-1-yl)-5-hydroxy-6-(hydroxymethyl)-3-methoxytetrahydro-2H-pyran-2-carboxamide] |
| 45 nM | CO[C@@H]1[C@@H](n2cc(-c3cc(F)c(C)c(F)c3)nn2)[C@@H](O)[C@@H](CO)O[C@H]1C(=O)N(c1cc(C)cc(Br)c1)[C@@H]1CN(C(C)=O)C[C@H]1O [Example 82, (2R,3R,4S,5R,6R)-N-((3R,4R)-1-acetyl-4-hydroxypyrrolidin-3-yl)-N-(3-bromo-5-methylphenyl)-4-(4-(3,5-difluoro-4-methylphenyl)-1H-1,2,3-triazol-1-yl)-5-hydroxy-6-(hydroxymethyl)-3-methoxytetrahydro-2H-pyran-2-carboxamide] |
| 67 nM | CO[C@@H]1[C@@H](n2cc(-c3cc(F)c(Cl)c(F)c3)nn2)[C@@H](O)[C@@H](CO)O[C@H]1C(=O)N(c1cc(C)cc(Br)c1)[C@@H]1CN(C(C)=O)C[C@H]1O [Example 83, (2R,3R,4S,5R,6R)-N-((3R,4R)-1-acetyl-4-hydroxypyrrolidin-3-yl)-N-(3-bromo-5-methylphenyl)-4-(4-(4-chloro-3,5-difluorophenyl)-1H-1,2,3-triazol-1-yl)-5-hydroxy-6-(hydroxymethyl)-3-methoxytetrahydro-2H-pyran-2-carboxamide] |
| 38 nM | CO[C@@H]1[C@@H](n2cc(-c3cc(F)c(F)c(F)c3)nn2)[C@@H](O)[C@@H](CO)O[C@H]1C(=O)N(c1cc(Br)cc(C#N)c1)[C@H]1CN(C=O)C[C@@H]1O [Example 89, (2R,3R,4S,5R,6R)-N-(3-bromo-5-cyanophenyl)-N-((3S,4S)-1-formyl-4-hydroxypyrrolidin-3-yl)-5-hydroxy-6-(hydroxymethyl)-3-methoxy-4-(4-(3,4,5-trifluorophenyl)-1H-1,2,3-triazol-1-yl)tetrahydro-2H-pyran-2-carboxamide] |
| 20 nM | CO[C@@H]1[C@@H](n2cc(-c3cc(F)c(F)c(F)c3)nn2)[C@@H](O)[C@@H](CO)O[C@H]1C(=O)N(c1cc(C)cc(Br)c1)[C@H]1CN(C=O)C[C@@H]1O [Example 90, (2R,3R,4S,5R,6R)-N-(3-bromo-5-methylphenyl)-N-((3S,4S)-1-formyl-4-hydroxypyrrolidin-3-yl)-5-hydroxy-6-(hydroxymethyl)-3-methoxy-4-(4-(3,4,5-trifluorophenyl)-1H-1,2,3-triazol-1-yl)tetrahydro-2H-pyran-2-carboxamide] |
| 20 nM | CO[C@@H]1[C@@H](n2cc(-c3ccc(Br)c(F)c3F)nn2)[C@@H](O)[C@@H](CO)O[C@H]1C(=O)N(c1cc(Cl)cc(Cl)c1)[C@H]1CN(C=O)C[C@@H]1O [Example 91, (2R,3R,4S,5R,6R)-4-(4-(4-bromo-2,3-difluorophenyl)-1H-1,2,3-triazol-1-yl)-N-(3,5-dichlorophenyl)-N-((3S,4S)-1-formyl-4-hydroxypyrrolidin-3-yl)-5-hydroxy-6-(hydroxymethyl)-3-methoxytetrahydro-2H-pyran-2-carboxamide] |
| 19 nM | CO[C@@H]1[C@@H](n2cc(-c3ccc(C)c(F)c3F)nn2)[C@@H](O)[C@@H](CO)O[C@H]1C(=O)N(c1cc(C)cc(Br)c1)[C@H]1CN(C=O)C[C@@H]1O [Example 92, (2R,3R,4S,5R,6R)-N-(3-bromo-5-methylphenyl)-4-(4-(2,3-difluoro-4-methylphenyl)-1H-1,2,3-triazol-1-yl)-N-((3S,4S)-1-formyl-4-hydroxypyrrolidin-3-yl)-5-hydroxy-6-(hydroxymethyl)-3-methoxytetrahydro-2H-pyran-2-carboxamide] |
| 80 nM | CO[C@@H]1[C@@H](n2cc(-c3cc(F)c(F)c(F)c3)nn2)[C@@H](O)[C@@H](CO)O[C@H]1C(=O)N(c1cc(Br)cc(C#N)c1)[C@@H]1CN(C=O)C[C@H]1O [Example 93, (2R,3R,4S,5R,6R)-N-(3-bromo-5-cyanophenyl)-N-((3R,4R)-1-formyl-4-hydroxypyrrolidin-3-yl)-5-hydroxy-6-(hydroxymethyl)-3-methoxy-4-(4-(3,4,5-trifluorophenyl)-1H-1,2,3-triazol-1-yl)tetrahydro-2H-pyran-2-carboxamide] |
| 86 nM | CO[C@@H]1[C@@H](n2cc(-c3cc(F)c(F)c(F)c3)nn2)[C@@H](O)[C@@H](CO)O[C@H]1C(=O)N(c1cc(C)cc(Br)c1)[C@@H]1CN(C=O)C[C@H]1O [Example 94, (2R,3R,4S,5R,6R)-N-(3-bromo-5-methylphenyl)-N-((3R,4R)-1-formyl-4-hydroxypyrrolidin-3-yl)-5-hydroxy-6-(hydroxymethyl)-3-methoxy-4-(4-(3,4,5-trifluorophenyl)-1H-1,2,3-triazol-1-yl)tetrahydro-2H-pyran-2-carboxamide] |
| 40 nM | CO[C@@H]1[C@@H](n2cc(-c3ccc(C)c(F)c3F)nn2)[C@@H](O)[C@@H](CO)O[C@H]1C(=O)N(c1cc(C)cc(Br)c1)[C@@H]1CN(C=O)C[C@H]1O [Example 95, (2R,3R,4S,5R,6R)-N-(3-bromo-5-methylphenyl)-4-(4-(2,3-difluoro-4-methylphenyl)-1H-1,2,3-triazol-1-yl)-N-((3R,4R)-1-formyl-4-hydroxypyrrolidin-3-yl)-5-hydroxy-6-(hydroxymethyl)-3-methoxytetrahydro-2H-pyran-2-carboxamide] |
| 51 nM | CO[C@@H]1[C@@H](n2cc(-c3cc(F)c(F)c(F)c3)nn2)[C@@H](O)[C@@H](CO)O[C@H]1C(=O)N(c1cc(C)cc(Br)c1)[C@H]1CN(C)C[C@@H]1O [Example 96, (2R,3R,4S,5R,6R)-N-(3-bromo-5-methylphenyl)-5-hydroxy-N-((3S,4S)-4-hydroxy-1-methylpyrrolidin-3-yl)-6-(hydroxymethyl)-3-methoxy-4-(4-(3,4,5-trifluorophenyl)-1H-1,2,3-triazol-1-yl)tetrahydro-2H-pyran-2-carboxamide] |
| 24 nM | CCN1C[C@H](O)[C@@H](N(C(=O)[C@@H]2O[C@H](CO)[C@H](O)[C@H](n3cc(-c4cc(F)c(F)c(F)c4)nn3)[C@H]2OC)c2cc(C)cc(Br)c2)C1 [Example 97, (2R,3R,4S,5R,6R)-N-(3-bromo-5-methylphenyl)-N-((3S,4S)-1-ethyl-4-hydroxypyrrolidin-3-yl)-5-hydroxy-6-(hydroxymethyl)-3-methoxy-4-(4-(3,4,5-trifluorophenyl)-1H-1,2,3-triazol-1-yl)tetrahydro-2H-pyran-2-carboxamide] |
| 29 nM | CO[C@@H]1[C@@H](n2cc(-c3cc(F)c(F)c(F)c3)nn2)[C@@H](O)[C@@H](CO)O[C@H]1C(=O)N(c1cc(C)cc(Br)c1)[C@H]1CN(S(C)(=O)=O)C[C@@H]1O [Example 98, (2R,3R,4S,5R,6R)-N-(3-bromo-5-methylphenyl)-5-hydroxy-N-((3S,4S)-4-hydroxy-1-(methylsulfonyl)pyrrolidin-3-yl)-6-(hydroxymethyl)-3-methoxy-4-(4-(3,4,5-trifluorophenyl)-1H-1,2,3-triazol-1-yl)tetrahydro-2H-pyran-2-carboxamide] |
| 16 nM | CO[C@@H]1[C@@H](n2cc(-c3cc(F)c(F)c(F)c3)nn2)[C@@H](O)[C@@H](CO)O[C@H]1C(=O)N(c1cc(Cl)cc(Cl)c1)[C@H]1CCOC[C@@H]1O [Example 99, (2R,3R,4S,5R,6R)-N-(3,5-dichlorophenyl)-5-hydroxy-6-(hydroxymethyl)-N-((3R,4S)-3-hydroxytetrahydro-2H-pyran-4-yl)-3-methoxy-4-(4-(3,4,5-trifluorophenyl)-1H-1,2,3-triazol-1-yl)tetrahydro-2H-pyran-2-carboxamide] |
